Experimental data: PMC9369794 (Molecules, 2022)

Legend:
[1] = Hydrodynamic diameter and colloidal stability of aggregates by dynamic light scattering; format: physicochemical; settings: for mean size (hydrodynamic diameter) / zeta potential: 37 °C; for PDI: sd^2/mean size^2
Experimental: In contrary, all spectra gave a hypsochromic shift and loss of fine-structure when the DMSO solutions were diluted with PBS, which refers to the formation of H-type (card-pack) aggregates (Figures S1–S12). Since DMSO-containing aqueous systems are more suitable for biological studies, we examined these solution by dynamic light scattering (DLS) spectroscopy to gain more information about the particles. The concentrations of the examined solutions were the same as used in the ABTS/TEAC measurements (0.3125–5.00 μM, see next section).
Size determination of aggregates and the colloidal stability of the sample dispersions were determined by dynamic light scattering measurements, where the hydrodynamic diameter of particles, and zeta potential values were collected. The number-weighted size distribution indicated one main peak in each case, the polydispersity index (PDI) was calculated as sd^2/mean size^2. For the particle size analysis Malvern Zetasizer Nano S instrument and for the zeta potential determination Malvern Zetasizer Nano Z instrument were used (Malvern Panalytical Ltd., Great Malvern, Worcestershire, UK). The measurements were carried out in autocorrelation mode, and the following parameters were kept constant: scattering angle 173°, attenuator 11 and its factor 0.0146, measurement position 4.65 mm. The concentrations of sample dispersions were between 0.3125 and 5 µM. The dispersion medium was PBS. Each samples was examined after 6 min incubation period at 37 °C.

[2] = TEAC assay using ABTS radical; settings: 6 min, ratio of slopes to trolox (melatonin dissolved in EtOH); for TEAC from DMSO: stock in DMSO diluted with PBS pH 7.4, 37 °C; for TEAC from THF: stock in THF diluted with PBS pH 7.4, 37 °C
Experimental: This method uses a redox reaction between ABTS^•+ radical cation and the examined antioxidants, which act as the reducing agents. […] As the carotenoids and the conjugates are poorly soluble in water, they were dissolved first either in small amounts of freshly distilled tetrahydrofuran (THF) or in dimethylsulfoxide (DMSO), and these stock solutions were diluted with phosphate-buffered saline (PBS) to the final nominal concentration.
The TEAC values were determined in isotonic phosphate buffer of pH 7.4. The buffer solution was made by dissolving 9.55 g of DPBS powder in distilled water to form 1L of solution (composition: 0.138 M NaCl, 0.0027 M KCl, 0.0081 M Na2HPO4, 0.0015 M KH2PO4). The assay was performed according to a literature process with slight modifications. The ABTS^•+ radical cation was produced by reacting 7 mM 2,2′-azino-bis(3-ethylbenzothiazoline-6-sulfonic acid) and 2.45 mM potassium persulfate in water. The stock ABTS^•+ solution was prepared 12–16 h before the experiments, and stored at room temperature in dark. The absorbance of the ABTS^•+ solution was set to 0.70 ± 0.05 at 734 nm by a ca. 100-fold dilution with phosphate-buffered saline (PBS). […] The stock solutions were diluted with PBS such that equal amounts of the diluted solutions were added to the ABTS^•+ reagent to obtain final antioxidants concentrations of 0.3125, 0.625, 1.25, 2.50, 3.75, 5 μM, respectively. In the blank (0 μM), the solutions of the antioxidants were substituted with THF or DMSO.
The antioxidants were incubated with ABTS^•+ solution at 37 °C for 6 min. During the reaction of ABTS^•+ with the antioxidants the absorbance of the solution decreases. The percentage inhibition of absorbance at 734 nm was calculated as (A0 − Aantioxidant)/A0, where A0 is the absorbance of the ABTS^•+ solution and Aantioxidant is the absorbance measured after the addition of the antioxidant. The determinations were carried out at each concentration in triplicate. The calculated values were plotted against the final concentration of the antioxidants. The slopes of the curves were compared with that for trolox, the TEAC value is the ratio of the slopes for the antioxidant and for trolox.

[3] = FRAP assay for the antioxidant capacity; design: key to FRAP: slope of concentration-absorbance line divided by Trolox slope; settings: stock in THF, acetate buffer pH 3.0, 37 °C, 15 min; ratio of slopes to trolox (melatonin in EtOH)
Experimental: In the FRAP method the antioxidant reduces Fe^3+ to Fe^2+ in an acidic medium. These experiments were performed in an acetate buffer of pH 3.0, the stock solutions of the examined antioxidants were prepared in THF. The antioxidant capacities were compared to that of Trolox as a standard, just like in the ABTS assays.
A modified literature process was used. The FRAP reagent should also be prepared freshly each day. 2,4,6-Tris(2-pyridyl)-s-triazin (TPTZ) was dissolved in a 200 mM HCl solution and diluted with water to get a final 40 mM HCl and 10 mM TPTZ concentration. For the preparation of the FRAP reagent 30 mL of 20 mM FeCl3 solution and 30 mL of 10 mM TPTZ solution were mixed, and 300 mL of 300 mM acetate buffer with pH 3.0 was added (a pH lower than usual was used to avoid the precipitation of the TPTZ). The FRAP reagent was incubated at 37 °C for 15 min. 150 μL of antioxidant dissolved in THF was mixed with 2.85 mL FRAP reagent solution, and incubated at 37 °C for 15 min in dark. Measurements were carried out at each antioxidant concentration (0, 7.5; 10; 12.5; 15; 17.5 μM final concentration) in triplicate. In the 0 μM solution the antioxidant solution was substituted with acetate buffer (pH 3.0). The FRAP was determined at 600 nm: the absorbance values were plotted as a function of concentration of the sample compounds and that of Trolox for the standard reference data. The FRAP values were calculated as in the ABTS assays, i.e., the slope of the concentration-absorbance lines for the carotenoid derivatives was divided by that for the trolox.

[4] = Study of aggregation by UV-Vis spectrophotometry; format: physicochemical; settings: for type of aggregates formed: from THF:aqueous solutions; for change of UV spectrum with increasing ratio of PBS: starting from THF solutions
Source text: It has been known for a long while that carotenoids or their derivatives can be prone to supramolecular organization in water or water-organic solvent mixtures. This behaviour is especially interesting because this higher organization can modulate or alter biological properties of carotenoids, as well [40]. A tendency to form supramolecular structures can be tested by recording the UV spectra in an organic solvent and increasing the ratio of water in the sample. […] We have some recent experience of such behaviour of carotenoid-flavonoid conjugates.
All of our adducts were tested with the method above using tetrahydrofurane (THF) or dimethylsulfoxide (DMSO) with increasing ratio of phosphate-buffered saline (PBS), which was the medium of the antioxidant measurements. […]
1. Study of Aggregation by UV-Vis Spectrophotometry
Starting from THF solutions: each conjugate was dissolved in freshly distilled THF and the solutions were diluted
either with THF or THF-PBS mixtures to obain final solutions of identical carotenoid concentration. […]
Figure S1. UV-spectra of 8’-apo-β-carotenol succinate ( 6) ( a) in THF and in THF-PBS mixtures ( 1:1 , 1:3); (b) in DMSO
Figure S2. UV-spectra of zeaxanthin bissuccinate ( 7) ( a) in THF and in THF-PBS mixtures ( 1:1 , 1:3); (b) in DMSO and
Figure S3. UV-spectra of zeaxanthin monosuccinate ( 11) ( a) in THF and in THF-PBS mixtures ( 1:1 , 1:3); (b) in DMSO […]

[5] = 0.3125 μM in PBS from DMSO stock
[6] = 0.625 μM in PBS from DMSO stock

Row | Compound | mean size (hydrodynamic diameter) [1, 5] | zeta potential [1, 5] [mV] | mean size (hydrodynamic diameter) [1, 6] | zeta potential [1, 6] [mV] | mean size (hydrodynamic diameter) ([1]; 1.25 μM in PBS from DMSO stock) | zeta potential ([1]; 1.25 μM in PBS from DMSO stock) [mV] | mean size (hydrodynamic diameter) ([1]; 2.5 μM in PBS from DMSO stock) [nm] | zeta potential ([1]; 2.5 μM in PBS from DMSO stock) [mV] | PDI ([1]; 2.5 μM in PBS) | mean size (hydrodynamic diameter) ([1]; 3.75 μM in PBS from DMSO stock) [nm] | zeta potential ([1]; 3.75 μM in PBS from DMSO stock) [mV] | PDI ([1]; 3.75 μM in PBS) | mean size (hydrodynamic diameter) ([1]; 5 μM in PBS from DMSO stock) [nm] | zeta potential ([1]; 5 μM in PBS from DMSO stock) [mV] | PDI ([1]; 5 μM in PBS) | TEAC from THF [2] | FRAP [3] | type of aggregates formed [4] | change of UV spectrum with increasing ratio of PBS [4] | melting point [°C] | other results
1 | COc1ccc2[nH]cc(CCNC(=O)CNC(=O)CCC(=O)O[C@@H]3CC(C)=C(/C=C/C(C)=C/C=C/C(C)=C/C=C/C=C(C)/C=C/C=C(C)/C=C/C4=C(C)C[C@@H](OC(=O)CCC(=O)NCC(=O)NCCc5c[nH]c6ccc(OC)cc56)CC4(C)C)C(C)(C)C3)c2c1 [Compound 14, Zeaxanthin-bismelatonin conjugate] | too large for DLS | −0.7 | too large for DLS | −0.7 | too large for DLS | −1.0 | 137.50 | −0.4 | 0.0147 | 91.77 | −0.2 | 0.0108 | 705.10 | 0.0 | 0.0659 | 2.080 | 0.206 | J-type (head-to-tail) aggregates | bathochromic shift | 149 to 150 | TEAC from DMSO [2]: 2.79
2 | COc1ccc2[nH]cc(CCNC(=O)CNC(=O)CCC(=O)O[C@@H]3CC(C)=C(/C=C/C(C)=C/C=C/C(C)=C/C=C/C=C(C)/C=C/C=C(C)/C=C/C4=C(C)CCCC4(C)C)C(C)(C)C3)c2c1 [Compound 15, Cryptoxanthin-melatonin conjugate] | 29.79 nm | −13.4 | 31.22 nm | −23.5 | 74.91 nm | −20.8 | 305.10 | −20.4 | 0.1649 | 826.80 | −11.8 | 0.0840 | 615.10 | −15.7 | 0.0992 | 1.777 | 0.154 | J-type (head-to-tail) aggregates | bathochromic shift | 153 to 154 | PDI ([1]; 0.3125 μM in PBS): 0.0356; PDI ([1]; 0.625 μM in PBS): 0.1230; PDI ([1]; 1.25 μM in PBS): 0.1051
3 | COc1ccc2[nH]cc(CCNC(=O)CNC(=O)CCC(=O)O[C@@H]3CC(C)=C(/C=C/C(C)=C/C=C/C(C)=C/C=C/C=C(C)/C=C/C=C(C)/C=C/C4C(C)=C[C@@H](OC(=O)CCC(=O)NCC(=O)NCCc5c[nH]c6ccc(OC)cc56)CC4(C)C)C(C)(C)C3)c2c1 (some centres unmarked) [Compound 16, Lutein-bismelatonin conjugate] | 131.20 nm | −12.2 | 51.10 nm | −11.7 | 142.50 nm | −12.5 | 91.19 | −27.5 | 0.1585 | 39.28 | −1.4 | 0.1229 | 43.14 | −0.5 | 0.0264 | 2.933 | 0.460 | J-type (head-to-tail) aggregates | bathochromic shift | 123 to 124 | PDI ([1]; 0.3125 μM in PBS): 0.2022; PDI ([1]; 0.625 μM in PBS): 0.0673; PDI ([1]; 1.25 μM in PBS): 0.0108; TEAC from DMSO [2]: 2.40
4 | COc1ccc2[nH]cc(CCNC(=O)CNC(=O)CCC(=O)O[C@@H]3CC(C)=C(/C=C/C(C)=C/C=C/C(C)=C/C=C/C=C(C)/C=C/C=C(C)/C=C/C(=O)[C@]4(C)C[C@@H](OC(=O)CCC(=O)NCC(=O)NCCc5c[nH]c6ccc(OC)cc56)CC4(C)C)C(C)(C)C3)c2c1 [Compound 17, Capsanthin-dimelatonin conjugate] | 24.42 nm | −31.0 | 43.47 nm | −22.9 | 101.60 nm | −21.1 | 226.30 | −22.2 | 0.1650 | 58.55 | −27.5 | 0.1693 | 236.60 | −27.0 | 0.1273 | 1.519 | 0.629 | J-type (head-to-tail) aggregates | bathochromic shift | 130 to 131 | PDI ([1]; 0.3125 μM in PBS): 0.0408; PDI ([1]; 0.625 μM in PBS): 0.1239; PDI ([1]; 1.25 μM in PBS): 0.1362; TEAC from DMSO [2]: 2.53
